Test results taken from patent publication US8247426B2, “Crystalline irinotecan hydrochloride and methods for its preparation” (Antibioticos S.p.A., priority 2008, dated 2012).
Where a name gives a salt, the structure may show the parent alone.

Test: solubility in water at room temperature
Type: physicochemical

solubility: > 20 mg/mL
SMILES: CCc1c2c(nc3ccc(OC(=O)N4CCC(N5CCCCC5)CC4)cc13)-c1cc3c(c(=O)n1C2)COC(=O)[C@]3(O)CC [form H, irinotecan hydrochloride]
